# In publication PMC2361324, “Phase 1 trial of the antiangiogenic peptide ATN-161 (Ac-PHSCN-NH2), a beta integrin antagonist, in patients with solid tumours” (British Journal of Cancer, 2006):
# Read-outs that look alike come from different tables or passages of the source.
# Tests used:
# [1] = Urinary excretion and renal clearance in phase 1 trial; format: in vivo, human; settings: urine; for dose excreted: human, iv
# Protocol: (§2) Blood samples for PK analysis were collected in EDTA-coated tubes on Day 1 for all patients preinfusion, at the end of infusion, and at 5, 10, 15, 30, 45, 60, 90, 120, 150, 180, 240, 400, 460 and 520 min after infusion. Samples were immediately centrifuged, and the plasma was separated and stored at −20°C prior to analysis.
# (§3) Pharmacokinetic data were modelled using a noncompartmental approach to estimate individual subject values for the following parameters: maximum observed concentration (Cmax), time of the maximum observed concentration (Tmax), volume of distribution at steady state (VSS), terminal elimination half-life (t1/2), total systemic clearance (CL), area under the plasma concentration-time curve (AUC), and CLr. For these parameters the mean and s.d. coefficient of variation were calculated.
# (§4) Descriptive PKs parameters were determined by standard model independent methods for infusion administration ([Perrier and Gibaldi, 1982]) from plasma concentrations in each individual patient. Plasma and urine concentrations were rounded to the nearest [drawing 1] ng ml^−1 before the calculations. Plasma samples with concentrations below the quantifiable limit of 50.0 ng ml^−1 (BQL) were assigned values of zero for generation of mean and s.d. plasma concentrations. For PKs calculations, BQL was treated as zero up to the first quantifiable plasma concentration and then treated as an empty value thereafter. Urine samples reported as BQL (⩽50.0 ng ml^−1) were treated as zero for all calculations. Actual patient blood collection sampling times relative to the start of infusion were used for PKs calculations; however, scheduled collection times were used for urinary excretion data and graphical presentations of all data.
# [2] = Toxicity / adverse events in phase 1 trial (NCI CTC v2.0); format: in vivo, human; settings: for Number of patients with ATN-161-associated adverse events: possible, probable or definite relationship
# Protocol: ATN-161 was administered as a 10-min infusion, three times per week. Sequential cohorts of three patients were enrolled to eight different dose levels (0.1, 0.25, 0.5, 1.0, 2.0, 4.0, 8.0 and 16.0 mg kg^−1). All patients in a given dose level were evaluated for at least 28 days before patients could be treated at the next higher dose level. Patients receiving therapy for <1 cycle (4 weeks) were to be replaced unless they had experienced a DLT. Toxicity was evaluated according to the NCI Common Terminology Criteria (CTC) Version 2.0. Dose-limiting toxicities were defined as any of the following treatment-related events occurring during the first cycle of therapy: Grade 4 neutropenia or febrile neutropenia, any other Grade 3 or greater nonhaematologic toxicity, or any toxicity requiring ATN-161 to be held for more than 1 week (i.e., three consecutive missed doses). In the event of DLT, dosing was to be held until recovery to at least Grade 1 toxicity and a new dosing cycle for that patient was to be initiated at the investigator's discretion at 50% of the previous dose. […] In the event of Grade 2 toxicity involving vital organs (hepatic, pulmonary, renal, neurologic, gastrointestinal or cardiotoxicity), the dose of ATN-161 was to be held until recovery to Grade 0–1 before a new cycle was initiated at 100% dosing. If the Grade 2 toxicity recurred, dosing was to be held until recovery to Grade 0–1 and the next cycle would resume at 50%. Occurrence of DLT at a given dose level would require further enrolment of up to six patients at that dose level to determine if the MTD had been exceeded. The MTD was defined as one dose level below which ⩾2/6 patients experienced a DLT. Treatment could continue until progressive disease, or one of the following: unacceptable toxicity, intercurrent illness, patient declined further treatment, or physician decision in view of a patient's other medical conditions.
# During treatment, patients were evaluated monthly with physical examinations including toxicity assessment using the CTC, ECOG PS, serum chemistry, haematology and coagulation testing. Tumour burden was reassessed every two cycles (8 weeks) by physical exam or radiological methods as appropriate using RECIST ([Therasse et al, 2000]).
# No inferential analyses were performed. Data are presented in a descriptive fashion. Treatment-emergent adverse events were translated from investigator terms to MedDRA terminology and summarised within and across dose levels for all patients who received at least one dose of ATN-161. Treatment administration is described for all patients, including drug/dose administration, number of cycles, dose modifications or delays and duration of therapy.
# [3] = tested on: DU145 prostate cancer cell line; settings: in vitro, human DU145 prostate cancer cell line; ref Livant et al, 2000b; cited from earlier work
# Source text: (§1) In vitro, ATN-161 inhibited PHSRN-induced basement membrane invasion of human (DU145) and rat (MLL) prostate cancer cell lines ([Livant et al, 2000b]).
# [4] = tested on: MLL prostate cancer cell line; settings: in vitro, rat MLL prostate cancer cell line; ref Livant et al, 2000b; cited from earlier work
# Source text: as §1
# [5] = except at extremely high, supratherapeutic doses, ref not given, cited from earlier work
# Source text: These preclinical animal models included assessment of the effects of ATN-161 on tumour growth, metastasis, angiogenesis, tumour perfusion and circulating endothelial progenitor cells (CEPs) ([Donate et al, 2003]). […] We designed the phase 1 trial to evaluate a dose range in human beings (using well-established rules for interspecies dose conversi ...
# [6] = Plasma pharmacokinetics in phase 1 trial; settings: human, iv; for Vd: patients, Day 1, HPLC-MS/MS, noncompartmental, cohort mean
# Protocol: as §2, §3, §4
# [7] = dose level 0.5 mg kg^−1, ATN-161-associated, any course
# [8] = dose level 1.0 mg kg^−1, ATN-161-associated, any course
# [9] = dose level 2.0 mg kg^−1, ATN-161-associated, any course
# [10] = dose level 4.0 mg kg^−1, ATN-161-associated, any course
substance,measurement,setting,value
"Ac-PHSCN-NH2 [ATN-161, Ac-PHSCN-NH2]",time after dose administration in which the majority of the dose was excreted,[1]; almost all patients (23 of 26),≤ 2 h
same,dose excreted,"[1]; 0.1 mg/kg, patients, 0.1 mg kg^−1 10-min i.v. infusion, Day 1, HPLC-MS/MS, cohort mean, read-out: Urinary excretion between 0 and 7 h as a percent of dose",2.46%
same,dose excreted,"[1]; 0.25 mg/kg, patients, 0.25 mg kg^−1 10-min i.v. infusion, Day 1, HPLC-MS/MS, cohort mean, read-out: Urinary excretion between 0 and 7 h as a percent of dose",13.8%
same,dose excreted,"[1]; 0.5 mg/kg, patients, 0.5 mg kg^−1 10-min i.v. infusion, Day 1, HPLC-MS/MS, cohort mean, read-out: Urinary excretion between 0 and 7 h as a percent of dose",25.3%
same,dose excreted,"[1]; 1 mg/kg, patients, 1 mg kg^−1 10-min i.v. infusion, Day 1, HPLC-MS/MS, cohort mean, read-out: Urinary excretion between 0 and 7 h as a percent of dose",1.82%
same,dose excreted,"[1]; 2 mg/kg, patients, 2 mg kg^−1 10-min i.v. infusion, Day 1, HPLC-MS/MS, cohort mean, read-out: Urinary excretion between 0 and 7 h as a percent of dose",2.35%
same,dose excreted,"[1]; 4 mg/kg, patients, 4 mg kg^−1 10-min i.v. infusion, Day 1, HPLC-MS/MS, cohort mean, read-out: Urinary excretion between 0 and 7 h as a percent of dose",2.36%
same,dose excreted,"[1]; 8 mg/kg, patients, 8 mg kg^−1 10-min i.v. infusion, Day 1, HPLC-MS/MS, cohort mean, read-out: Urinary excretion between 0 and 7 h as a percent of dose",17.5%
same,dose excreted,"[1]; 16 mg/kg, patients, 16 mg kg^−1 10-min i.v. infusion, Day 1, HPLC-MS/MS, cohort mean, read-out: Urinary excretion between 0 and 7 h as a percent of dose",15.3%
same,dose excreted,"[1]; majority of the patients (20 of 26), all dose levels, urine 0-7 h, read-out: Urinary excretion, percent of administered dose",~2%
same,dose excreted,"[1]; remaining six of 26 patients, not associated with dose level, urine 0-7 h, read-out: Urinary excretion, percent of administered dose",20 to 50%
same,Number of patients with Muscle cramps,[2]; [7],1
same,Number of patients with Sweating increased,[2]; [7],1
same,Number of patients with ATN-161-associated adverse events,"[2]; dose level 0.5 mg kg^−1, any course",1
same,Number of patients with Cellulitis,[2]; [8],1
same,Number of patients with Dry mouth,[2]; [8],1
same,Number of patients with Pain in limb,[2]; [8],1
same,Number of patients with Paresthesia,[2]; [8],1
same,Number of patients with Phlebitis not otherwise specified (NOS),[2]; [8],1
same,Number of patients with ATN-161-associated adverse events,"[2]; dose level 1.0 mg kg^−1, any course",1
same,Number of patients with Anemia NOS,[2]; [9],1
same,Number of patients with Hypotension NOS,[2]; [9],1
same,Number of patients with Oral candidiasis,[2]; [9],1
same,Number of patients with ATN-161-associated adverse events,"[2]; dose level 2.0 mg kg^−1, any course",2
same,Number of patients with Constipation,[2]; [10],1
same,Number of patients with Fatigue,[2]; [10],1
same,Number of patients with Nausea,[2]; [10],2
same,Number of patients with ATN-161-associated adverse events,"[2]; dose level 4.0 mg kg^−1, any course",2
same,Number of patients with Nausea,"[2]; dose level 8.0 mg kg^−1, ATN-161-associated, any course",1
same,Number of patients with ATN-161-associated adverse events,"[2]; dose level 8.0 mg kg^−1, any course",1
same,Number of patients with Hypotension NOS,"[2]; dose level 16.0 mg kg^−1, ATN-161-associated, any course",1
same,Number of patients with ATN-161-associated adverse events,"[2]; dose level 16.0 mg kg^−1, any course",1
same,Dose-limiting toxicities (DLTs),"[2]; patients, 0.1-16 mg kg^−1 thrice weekly i.v., 26 patients",no DLTs occurred
same,MTD (maximum tolerated dose),"[2]; patients, 10-min i.v. infusion three times per week, not reached, 16 mg kg^−1 designated maximum administered dose",> 16 mg/kg
same,PHSRN-induced basement membrane invasion,[3],inhibited
same,PHSRN-induced basement membrane invasion,[4],inhibited
same,Toxicity in preclinical toxicology studies,[5]; primates,no consistent evidence of ATN-161 toxicity
same,Toxicity in preclinical toxicology studies,[5]; rats,no consistent evidence of ATN-161 toxicity
same,AUC(0-t),[6]; 0.25 mg/kg,3420 ng·h/mL
same,Cmax,[6]; 0.25 mg/kg,1120 ng/mL
same,MRT,[6]; 0.25 mg/kg,5.5 h
same,clearance,[6]; 0.25 mg/kg,1.33 mL/min/kg
same,half-life,[6]; 0.25 mg/kg,4.4 h
same,Vd,"[6]; 0.25 mg/kg, Vd (volume of distribution), 0.25 mg kg^−1 10-min i.v. infusion",0.48 L/kg
same,Vd,"[6]; 0.25 mg/kg, Vss (volume of distribution at steady state), 0.25 mg kg^−1 10-min i.v. infusion",0.33 L/kg
same,AUC(0-t),[6]; 0.5 mg/kg,3610 ng·h/mL
same,Cmax,[6]; 0.5 mg/kg,5790 ng/mL
same,MRT,[6]; 0.5 mg/kg,3.3 h
same,clearance,[6]; 0.5 mg/kg,2.83 mL/min/kg
same,half-life,[6]; 0.5 mg/kg,3.2 h
same,Vd,"[6]; 0.5 mg/kg, Vd (volume of distribution), 0.5 mg kg^−1 10-min i.v. infusion",0.87 L/kg
same,Vd,"[6]; 0.5 mg/kg, Vss (volume of distribution at steady state), 0.5 mg kg^−1 10-min i.v. infusion",0.47 L/kg
same,AUC(0-t),[6]; 1 mg/kg,1450 ng·h/mL
same,Cmax,[6]; 1 mg/kg,3800 ng/mL
same,MRT,[6]; 1 mg/kg,3.8 h
same,clearance,[6]; 1 mg/kg,10.2 mL/min/kg
same,half-life,[6]; 1 mg/kg,3.9 h
same,Vd,"[6]; 1 mg/kg, Vd (volume of distribution), 1 mg kg^−1 10-min i.v. infusion",3.38 L/kg
same,Vd,"[6]; 1 mg/kg, Vss (volume of distribution at steady state), 1 mg kg^−1 10-min i.v. infusion",2.3 L/kg
same,AUC(0-t),[6]; 2 mg/kg,3320 ng·h/mL
same,Cmax,[6]; 2 mg/kg,15700 ng/mL
same,MRT,[6]; 2 mg/kg,2.5 h
same,clearance,[6]; 2 mg/kg,11.5 mL/min/kg
same,half-life,[6]; 2 mg/kg,3.5 h
same,Vd,"[6]; 2 mg/kg, Vd (volume of distribution), 2 mg kg^−1 10-min i.v. infusion",3.38 L/kg
same,Vd,"[6]; 2 mg/kg, Vss (volume of distribution at steady state), 2 mg kg^−1 10-min i.v. infusion",1.93 L/kg
same,AUC(0-t),[6]; 4 mg/kg,3710 ng·h/mL
same,Cmax,[6]; 4 mg/kg,5480 ng/mL
same,MRT,[6]; 4 mg/kg,4.8 h
same,clearance,[6]; 4 mg/kg,14.5 mL/min/kg
same,half-life,[6]; 4 mg/kg,4.3 h
same,Vd,"[6]; 4 mg/kg, Vd (volume of distribution), 4 mg kg^−1 10-min i.v. infusion",5.59 L/kg
same,Vd,"[6]; 4 mg/kg, Vss (volume of distribution at steady state), 4 mg kg^−1 10-min i.v. infusion",3.82 L/kg
same,AUC(0-t),[6]; 8 mg/kg,34200 ng·h/mL
same,Cmax,[6]; 8 mg/kg,34400 ng/mL
same,MRT,[6]; 8 mg/kg,3.4 h
same,clearance,[6]; 8 mg/kg,7 mL/min/kg
same,half-life,[6]; 8 mg/kg,3.3 h
same,Vd,"[6]; 8 mg/kg, Vd (volume of distribution), 8 mg kg^−1 10-min i.v. infusion",2.14 L/kg
same,Vd,"[6]; 8 mg/kg, Vss (volume of distribution at steady state), 8 mg kg^−1 10-min i.v. infusion",1.32 L/kg
same,AUC(0-t),[6]; 16 mg/kg,54900 ng·h/mL
same,Cmax,[6]; 16 mg/kg,72700 ng/mL
same,MRT,[6]; 16 mg/kg,5.3 h
same,clearance,[6]; 16 mg/kg,5.83 mL/min/kg
same,half-life,[6]; 16 mg/kg,5 h
same,Vd,"[6]; 16 mg/kg, Vd (volume of distribution), 16 mg kg^−1 10-min i.v. infusion",2.36 L/kg
same,Vd,"[6]; 16 mg/kg, Vss (volume of distribution at steady state), 16 mg kg^−1 10-min i.v. infusion",1.61 L/kg
